The values that follow come from patent US12458580B2, “Body ink compositions and applicators” (Inkbox Ink Inc., priority 2015, dated 2025).

The structures appear in SMILES notation. ≈ marks a conversion by molar mass, not a printed value.

In data set [1] the test system is human skin. The data set is described as follows: staining (inking) of skin. It is filed as in vivo. Conditions: liquid form, dissolved genipin. The protocol: In liquid form, the composition consists of at least a solvent and dissolved genipin in an amount in the range of 10 mM to 200 mM (millimolar), with a preference towards the upper end of this range. […] The ultimate upper limit of 200 mM is the amount where the tattoo applicator becomes too stiff and ultimately impractical to use. The solvent may be pure water, or alternatively buffered water. It has been discovered that maintaining an optimal pH of 7.4 produces the highest degree of effectiveness. Use of a buffer allows such a pH to be accurately maintained at the optimal level of 7.4. However, for efficacy pure water may be used instead of buffered water. The pH of water is 7.0, which reasonably approximates the determined optimal pH, and is within a range of pH values which lead to preferred results. In a preferred embodiment, isopropyl alcohol or ethyl alcohol is added to the formulation to provide enhanced drying capabilities and increased genipin solubility. Generally, the use of water as the solvent is preferred over other possible solvents because certain steps in the inking or staining reaction depend on water as a catalyst. […] Water has a viscosity of 1 centipoise (cP), which is a very low level and one that has been determined to be preferred for the composition of the invention. […]

For data set [2] the following is noted: at basic pH; cited from earlier work.
Data set [3] can be described thus: solubility limit of genipin in the liquid composition. It is filed as physicochemical. The note with it: liquid composition: solvent with dissolved genipin; liquid form, solvent water or buffered water. The protocol: In liquid form, the composition consists of at least a solvent and dissolved genipin in an amount in the range of 10 mM to 200 mM (millimolar), with a preference towards the upper end of this range. […] The ultimate upper limit of 200 mM is the amount where the tattoo applicator becomes too stiff and ultimately impractical to use. The solvent may be pure water, or alternatively buffered water. It has been discovered that maintaining an optimal pH of 7.4 produces the highest degree of effectiveness. Use of a buffer allows such a pH to be accurately maintained at the optimal level of 7.4. However, for efficacy pure water may be used instead of buffered water. The pH of water is 7.0, which reasonably approximates the determined optimal pH, and is within a range of pH values which lead to preferred results. In a preferred embodiment, isopropyl alcohol or ethyl alcohol is added to the formulation to provide enhanced drying capabilities and increased genipin solubility.

For data set [4], the system named is cells. Conditions: cited from earlier work.

One may read the solubility as the concentration that dissolves in the medium under given conditions. A higher solubility goes with a readily soluble substance. For `COC(=O)C1=CO[C@@H](O)[C@@H]2C(CO)=CC[C@H]12` [genipin], in data set [1], the “minimum concentration required for staining to take effect” value was determined as 10 mM. Besides, in data set [2], the stability in solution entry is “unstable and undergoes self-polymerization”. In data set [3], this compound displayed a solubility of 95 mM (≈ 21.5 mg/mL). In addition, the “cytotoxicity (harmfulness to cells)” value in data set [4] is reported as “low cytotoxicity”.
